Tests used:
Settings in all cases: stereoisomer not certain
[1] = HILIC, Waters ACQUITY UPLC BEH Amide, 150 × 2.1 mm, 1.7 µm, 40 °C, 0.5 mL/min, estimated dead time 0.66 min; A: 5% water + 95% acetonitrile; B: 70% water + 30% acetonitrile + 10 mM ammonium formate, pH 6.5; gradient (min/%B) 0/0 2/0 20/70 23/70 24/0 31/0
[2] = HILIC, Merck SeQuant ZIC-pHILIC, 150 × 2.1 mm, 5 µm, 40 °C, 0.3 mL/min, estimated dead time 1.1 min; A: acetonitrile; B: water + 2.8 mM ammonium formate, pH 9; gradient (min/%B) 0/5 1/5 10/51 13/51 13.1/5 20/5
[3] = RP, Phenomenex Kinetex C18, 150 × 2.1 mm, 1.7 µm, 30 °C, 0.3 mL/min, estimated dead time 1.1 min; A: water + 0.1% formic acid, pH 3; B: acetonitrile + 0.1% formic acid, pH 3; gradient (min/%B) 0/2 14/100 17/100 17.1/2 25/2
[4] = as above; remark: listed apart in the source

Row | Compound | LC retention time [1] [min] | LC retention time [2] [min] | LC retention time [3] [min] | LC retention time [4] [min]
1 | Cn1cnc2c1c(=O)[nH]c(=O)n2C [THEOBROMINE] | 1.32 | 1.93 | 3.68 | 
2 | CCCCCC=CCC=CCC=CCCCCC(=O)[O-] [GAMMA-LINOLENATE] |  |  | 11.8 | 11.8
3 | NC(Cc1cc(I)c(Oc2ccc(O)c(I)c2)c(I)c1)C(=O)O (stereo not drawn) [LIOTHYRONINE] |  | 6.19 | 7.42 | 7.41
4 | CCCCCCCCCCCCCC(=O)OCC(O)CO (stereo not drawn) [GLYCEROL-MYRISTATE] |  |  | 13.3 | 
5 | COC(=O)Cc1c[nH]c2ccccc12 [INDOLE-3-METHYL ACETATE] |  |  | 8.33 | 
6 | NCCc1c[nH]c2ccccc12 [TRYPTAMINE] | 7.11 |  | 5.12 | 
7 | O=CCc1c[nH]c2ccccc12 [INDOLEACETALDEHYDE] | 1.02 |  | 4.83 | 
8 | Cn1c(=O)c2c(ncn2C)n(C)c1=O [CAFFEINE] | 1.03 |  | 4.68 | 
9 | O=C1CCC(C(=O)O)N1 (stereo not drawn) [PYROGLUTAMATE] |  |  | 1.71 | 
10 | N[C@@H](Cc1ccc(O)c([N+](=O)[O-])c1)C(=O)O [3-NITRO-L-TYROSINE] |  | 7.37 | 3.56 | 3.48
11 | NC(=O)CCCCC1CCSS1 (stereo not drawn) [LIPOAMIDE] | 0.88 |  | 6.87 | 
12 | CC(O)(CC(=O)O)CC(=O)O [3-HYDROXYMETHYLGLUTARATE] |  | 8.15 | 2.36 | 2.24
13 | N[C@@H](Cc1ccc(O)c(O)c1)C(=O)O [L-DOPA] |  | 9.15 | 1.63 | 1.57
14 | CCCCCCCCCCCCCC(=O)O [MYRISTATE] |  |  | 11.6 | 
15 | O=C(O)C=Cc1ccc(O)cc1 [4-COUMARATE] |  | 5.24 | 5.65 | 5.47
16 | O=C(O)c1cccnc1C(=O)O [QUINOLINATE] |  | 1.76 | 1.5 | 1.47
17 | CC(=O)OCC(=O)C1CCC2C3CCC4=CC(=O)CCC4(C)C3CCC12C (stereo not drawn) [DEOXYCORTICOSTERONE ACETATE] |  |  | 11 | 
18 | Cc1ncc(CO)c(C(=O)O)c1O [4-PYRIDOXATE] |  | 1.69 | 2.83 | 2.73
19 | O=CCc1ccccc1 [PHENYLACETALDEHYDE] |  |  | 9.47 | 
20 | O=C(O)c1ccc2ccccc2n1 [2-QUINOLINECARBOXYLATE] | 8.23 | 5.63 | 4.39 | 
21 | Nc1nc2c(ncn2C2OC3COP(=O)(O)OC3C2O)c(=O)[nH]1 (stereo not drawn) [CYCLIC GMP] |  | 8.22 | 2.8 | 2.64
22 | O=C([O-])Cc1c[nH]c2ccccc12 [INDOLE-3-ACETATE] |  |  | 6.54 | 

Row | Compound | LC retention time [1] [min] | LC retention time [2] [min] | LC retention time [3] [min] | LC retention time [4] [min]
23 | CC12CCC3c4ccc(O)cc4CCC3C1CCC2O (stereo not drawn) [ESTRADIOL-17ALPHA] |  |  | 9.34 | 
24 | O=C(O)c1ccc([O-])cc1 [4-HYDROXYBENZOATE] |  |  | 4.66 | 4.51
25 | NC(Cc1cc(I)c(Oc2cc(I)c(O)c(I)c2)c(I)c1)C(=O)O (stereo not drawn) [THYROXINE] |  | 6.1 | 8.06 | 8.07
26 | CC(CCC(=O)O)C1CCC2C3CCC4CC(O)CCC4(C)C3CC(O)C12C (stereo not drawn) [DEOXYCHOLATE] | 1.01 |  | 10.8 | 
27 | CC(C)=CCCC(C)C1CCC2C3CC=C4CC(O)CCC4(C)C3CCC12C (stereo not drawn) [DESMOSTEROL] |  |  | 15.4 | 
28 | CC(O)C(O)C1=Nc2c(nc(N)[nH]c2=O)NC1 (stereo not drawn) [DIHYDROBIOPTERIN] |  | 5.52 | 2.14 | 4.09
29 | CCCCCCSCC(NC(=O)CCC(N)C(=O)O)C(=O)NCC(=O)O (stereo not drawn) [S-HEXYL-GLUTATHIONE] |  |  | 6.27 | 6.22
30 | COc1cc(C(O)CO)ccc1O (stereo not drawn) [4-HYDROXY-3-METHOXYPHENYLGLYCOL] | 1.01 |  | 3.21 | 
31 | Nc1ccc(C(=O)[O-])cc1 [4-AMINOBENZOATE] | 1.11 | 4.05 | 3.83 | 
32 | Cc1cc2nc[nH]c2cc1C [5,6 DIMETHYLBENZIMIDAZOLE] | 0.92 |  | 4.83 | 
33 | CC(CCC(=O)NCC(=O)O)C1CCC2C3C(O)CC4CC(O)CCC4(C)C3CCC12C (stereo not drawn) [GLYCOCHENODEOXYCHOLATE] |  | 4.94 | 9.28 | 9.21
34 | CCOC(=O)Cc1c[nH]c2ccccc12 [ETHYL 3-INDOLEACETATE] |  |  | 9.17 | 
35 | C[Se]CCC(N)C(=O)O (stereo not drawn) [SELENOMETHIONINE] | 8.56 | 6.81 | 1.76 | 
36 | CCCC(N)C(=O)O (stereo not drawn) [NORVALINE] | 8.68 | 7.52 |  | 1.33
37 | c1ncc2[nH]cnc2n1 [PURINE] | 1.89 | 3.4 |  | 1.92
38 | CCCCCCCCCCCCCCCC(=O)O [PALMITATE] |  |  | 11.8 | 
39 | CC(C=CC1=C(C)CCCC1(C)C)=CC=CC(C)=CC(=O)[O-] [RETINOATE] |  |  | 11.2 | 8.2
40 | CC(=O)NC(CCC(=O)O)C(=O)O (stereo not drawn) [N-ACETYLGLUTAMATE] |  | 8.75 | 1.9 | 1.78
41 | NC(Cc1c[nH]c2ccc(O)cc12)C(=O)O (stereo not drawn) [5-HYDROXYTRYPTOPHAN] |  | 8.74 | 3.05 | 2.99
42 | CCCCC(CC)COC(=O)c1ccccc1C(=O)OCC(CC)CCCC (stereo not drawn) [BIS(2-ETHYLHEXYL)PHTHALATE] |  |  | 9.11 | 9.02
43 | Nc1nc2ncc(CNc3ccc(C(=O)NC(CCC(=O)O)C(=O)O)cc3)nc2c(=O)[nH]1 (stereo not drawn) [FOLATE] |  | 9.42 | 4.35 | 11.3
44 | O=C(O)C(O)Cc1ccc(O)cc1 (stereo not drawn) [HYDROXYPHENYLLACTATE] | 1.4 | 6.83 |  | 3.97

Row | Compound | LC retention time [1] [min] | LC retention time [2] [min] | LC retention time [3] [min] | LC retention time [4] [min]
45 | N[C@@H](Cc1cc(I)c(O)c(I)c1)C(=O)O [3,5-DIIODO-L-TYROSINE] |  | 7.41 | 4.95 | 4.8
46 | Nc1ccccc1O [2-AMINOPHENOL] | 0.87 | 7.38 |  | 1.52
47 | Nc1c([O-])cccc1C(=O)O [3-HYDROXYANTHRANILATE] | 1.39 | 6.24 |  | 3.68
48 | O=C(O)c1cc(=O)c2cccc(O)c2[nH]1 [XANTHURENATE] |  | 6.93 | 4.12 | 4.05
49 | CC(C)=CCCC(C)=CCCC(C)=CCCC(C)=CCCC(C)=CCCC(C)=CCCC(C)=CCC1=C(C)C(=O)c2ccccc2C1=O [MENAQUINONE] |  |  | 11.9 | 
50 | COc1cc(CC(=O)O)ccc1O [HOMOVANILLATE] | 1.59 | 4.78 |  | 4.81
51 | NC(=O)NCCC(=O)O [UREIDOPROPIONATE] | 5.27 | 7.98 |  | 1.4
52 | O=C(O)CCCCCCCCCO [10-HYDROXYDECANOATE] | 1 | 1.44 |  | 7.13
53 | O=C([O-])c1c[nH]c(=O)[nH]c1=O [URACIL 5-CARBOXYLATE] |  |  | 1.93 | 1.8
54 | O=Cc1ccc(O)cc1 [4-HYDROXYBENZALDEHYDE] | 2.67 | 1.43 |  | 5.11
55 | CSCCC(N)C(=O)O (stereo not drawn) [METHIONINE] | 8.53 | 7.53 |  | 1.43
56 | Nc1nc2nccnc2c(=O)[nH]1 [PTERIN] | 4.43 | 6.57 |  | 2.05
57 | CC(CCC(=O)NCC(=O)O)C1CCC2C3C(O)CC4CC(O)CCC4(C)C3CC(O)C12C (stereo not drawn) [GLYCOCHOLATE] | 6.3 | 5.5 | 8.13 | 
58 | O=C(O)CC(O)C(=O)O (stereo not drawn) [MALATE] |  | 9.39 | 2.8 | 
59 | Cc1cc2nc3c(=O)[nH]c(=O)nc-3n(CC(O)C(O)C(O)COP(=O)(O)OP(=O)(O)OCC3OC(n4cnc5c(N)ncnc54)C(O)C3O)c2cc1C (stereo not drawn) [FAD] |  | 8.07 | 4.21 | 
60 | CC(CCC(=O)O)C(=O)O (stereo not drawn) [2-METHYLGLUTARATE] | 5.2 | 7.37 |  | 3.85
61 | CCCCC(N)C(=O)O (stereo not drawn) [NORLEUCINE] | 7.75 | 7.04 |  | 2.19
62 | Nc1ccn(C2OC(CO)C(O)C2O)c(=O)n1 (stereo not drawn) [CYTIDINE] | 6.3 | 7.29 |  | 1.39
63 | CC(O)(CCO)CC(=O)[O-] (stereo not drawn) [MEVALONATE] | 3.94 | 6.07 |  | 1.99
64 | CC(C)CC(N)C(=O)O (stereo not drawn) [LEUCINE] | 7.96 | 7.02 |  | 2.05
